Patent EP0134650B1, “High boiling solvent system for recovery of acetic acid from aqueous solutions” (CELANESE CORPORATION, priority 1983, dated 1985)

Experiment: Dissolved water in the solvent layer (extract) of acetic acid extraction
Format: physicochemical
Conditions: Acid in solvent layer 16.85 wt.%
Excerpt: Generally as the distribution coefficient goes up, water solubility increases in the extract. The effect for methyl n-amyl ketone and diisobutyl ketone is as follows: […]

Row | Dissolved water in solvent layer, wt.% [wt.%] | Compound
1 | 3.0 | CC(C)CC(=O)CC(C)C [diisobutyl ketone]
2 | 5.0 | CCCCCC(C)=O [methyl n-amyl ketone]
